Our source for the IC50 values is patent US20260258035A1, “FIVE-MEMBERED AND SIX-MEMBERED NITROGEN-CONTAINING COMPOUND, AND INTERMEDIATE, PREPARATION METHOD AND USE THEREOF” (HANGZHOU SYNRX THERAPEUTICS BIOMEDICAL TECHNOLOGY CO., LTD., priority 2022, published 2026).

The test concerns the target PARG (Homo sapiens, UniProt Q86W56). The test is described as follows: Biochemical assay (PARG, TFMU-ADPr substrate).
Where [1] appears, read: 4 nM PARG, 66.2 uM TFMU-ADPr, 3 min at room temperature.

SMILES strings stand for the structures.

As usually defined, the IC50 is the concentration needed to halve the response being measured.

PARG, sequence (Q86W56 whole entry): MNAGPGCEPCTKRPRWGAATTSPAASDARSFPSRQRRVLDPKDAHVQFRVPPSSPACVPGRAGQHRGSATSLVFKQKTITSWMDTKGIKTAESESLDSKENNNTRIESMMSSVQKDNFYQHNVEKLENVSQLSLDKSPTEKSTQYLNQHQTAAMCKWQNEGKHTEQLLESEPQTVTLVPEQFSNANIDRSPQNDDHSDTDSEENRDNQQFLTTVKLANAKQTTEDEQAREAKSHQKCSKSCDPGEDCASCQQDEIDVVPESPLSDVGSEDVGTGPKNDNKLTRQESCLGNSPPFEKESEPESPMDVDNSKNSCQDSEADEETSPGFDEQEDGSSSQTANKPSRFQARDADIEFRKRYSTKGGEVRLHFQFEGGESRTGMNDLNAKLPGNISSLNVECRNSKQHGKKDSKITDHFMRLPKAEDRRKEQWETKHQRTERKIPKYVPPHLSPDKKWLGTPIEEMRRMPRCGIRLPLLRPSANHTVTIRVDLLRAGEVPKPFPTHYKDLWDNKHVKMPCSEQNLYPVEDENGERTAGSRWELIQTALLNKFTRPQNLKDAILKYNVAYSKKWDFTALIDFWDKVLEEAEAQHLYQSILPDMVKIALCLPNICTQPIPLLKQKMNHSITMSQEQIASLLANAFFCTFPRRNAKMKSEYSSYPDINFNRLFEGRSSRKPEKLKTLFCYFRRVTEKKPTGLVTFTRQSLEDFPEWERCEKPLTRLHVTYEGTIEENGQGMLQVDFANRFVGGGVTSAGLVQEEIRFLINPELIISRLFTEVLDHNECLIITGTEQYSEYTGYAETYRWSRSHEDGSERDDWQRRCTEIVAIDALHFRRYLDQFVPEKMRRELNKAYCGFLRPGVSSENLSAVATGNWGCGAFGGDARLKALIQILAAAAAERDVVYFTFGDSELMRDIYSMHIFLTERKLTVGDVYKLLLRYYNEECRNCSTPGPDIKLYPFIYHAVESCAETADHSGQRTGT

Take `N#CC1(NS(=O)(=O)c2cc(-c3ccc(OC(F)(F)F)cc3)c3cnc(-c4nnc(C(F)F)s4)n3c2)CC1` [Example 141, N-(1-cyanocyclopropyl)-3-(5-(difluoromethyl)-1,3,4-thiadiazol-2-yl)-8-(4-(trifluoromethoxy)phenyl)imidazo[1,5-a]pyridine-6-sulfonamide]: the IC50 by setting is: under setting [1], 100 to 500 nM; (PARG, TFMU-ADPr substrate) 280 nM.
The like results for `CC1(O)CCN(c2cc(S(=O)(=O)NC3(CF)COC3)cn3c(-c4nnc(C(F)F)s4)ncc23)CC1` [Example 73, 3-(5-(difluoromethyl)-1,3,4-thiadiazol-2-yl)-N-(3-(fluoromethyl)oxetan-3-yl)-8-(4-hydroxy-4-methylpiperidin-1-yl)imidazo[1,5-a]pyridine-6-sulfonamide] were, in that order, below 100 nM and 41.7 nM.
Consider `CC(N1CCN(c2cc(S(=O)(=O)NC3(C#N)CC3)cn3c(-c4nnc(C(F)F)s4)ncc23)C[C@H]1C)C(F)(F)F` (stereo partly drawn) [Example 83, N-(1-cyanocyclopropyl)-3-(5-(difluoromethyl)-1,3,4-thiadiazol-2-yl)-8-((3R)-3-methyl-4-(1,1,1-trifluoropropan-2-yl)piperazin-1-yl)imidazo[1,5-a]pyridine-6-sulfonamide], for which the IC50 reads like this: under setting [1], 100 to 500 nM; (PARG, TFMU-ADPr substrate) 347 nM.
In turn, `CC(C)C(=O)N1CCN(c2cc(S(=O)(=O)N[C@H]3C[C@@H]3F)cn3c(-c4nnc(C(F)F)s4)ncc23)CC1` [Example 81, 3-(5-(difluoromethyl)-1,3,4-thiadiazol-2-yl)-N-((1S,2S)-2-fluorocyclopropyl)-8-(4-isobutyrylpiperazin-1-yl)imidazo[1,5-a]pyridine-6-sulfonamide] showed a half-inhibitory concentration (IC50) under setting [1] above 1000 nM.
With `C=CC(=O)N1CC=C(c2cnc3c(N4CCN(C(=O)C(C)C)CC4)cc(S(=O)(=O)NC4(C#N)CC4)cn23)C1` [Example 18, 3-(1-acryloyl-2,5-dihydro-1H-pyrrol-3-yl)-N-(1-cyanocyclopropyl)-8-(4-isobutyrylpiperazin-1-yl)imidazo[1,2-a]pyridine-6-sulfonamide], the IC50 is below 100 nM under setting [1] and 40 nM (PARG, TFMU-ADPr substrate).
As for `Cc1ncc2n1CCN(c1cc(S(=O)(=O)NC3(C#N)CC3)cn3c(-c4nnc(C(F)F)s4)ncc13)C2` [Example 44, N-(1-cyanocyclopropyl)-3-(5-(difluoromethyl)-1,3,4-thiadiazol-2-yl)-8-(3-methyl-5,6-dihydroimidazo[1,5-a]pyrazin-7(8H)-yl)imidazo[1,5-a]pyridine-6-sulfonamide], the IC50 was below 100 nM under setting [1] and 10.7 nM (PARG, TFMU-ADPr substrate).
The like results for `CC(C)C(=O)N1CCN(c2cc(S(=O)(=O)NC3COC3)cn3c(-c4nnc(C(F)F)s4)cnc23)CC1` [Example 16, 3-(5-(difluoromethyl)-1,3,4-thiadiazol-2-yl)-8-(4-isobutyrylpiperazin-1-yl)-N-(oxetan-3-yl)imidazo[1,2-a]pyridine-6-sulfonamide] were, in that order, below 100 nM and 29.7 nM.
`C=CC(=O)N1CC=C(c2cnc3c(N4CCN(C(=O)C(C)C)CC4)cc(S(=O)(=O)NC4(C#N)CC4)cn23)CC1` [Example 21, 3-(1-acryloyl-1,2,3,6-tetrahydropyridin-4-yl)-N-(1-cyanocyclopropyl)-8-(4-isobutyrylpiperazin-1-yl)imidazo[1,2-a]pyridine-6-sulfonamide] registered an IC50 (PARG, TFMU-ADPr substrate) of 912 nM.
With `CC1(C(=O)N2CCN(c3cc(S(=O)(=O)NC4(C#N)CC4)cn4c(-c5nnc(C(F)F)s5)ncc34)CC2(C)C)CC1` [Example 95, N-(1-cyanocyclopropyl)-3-(5-(difluoromethyl)-1,3,4-thiadiazol-2-yl)-8-(3,3-dimethyl-4-(1-methylcyclopropane-1-carbonyl)piperazin-1-yl)imidazo[1,5-a]pyridine-6-sulfonamide], the IC50 by setting is: under setting [1], below 100 nM; (PARG, TFMU-ADPr substrate) 100 nM.
For the setting “PARG, TFMU-ADPr substrate”, `Cc1cnc(-c2cnc3c(N4CCN(C(=O)C(C)C)CC4)cc(S(=O)(=O)NC4(C#N)CC4)cn23)s1` [Example 3, N-(1-cyanocyclopropyl)-8-(4-isobutyrylpiperazin-1-yl)-3-(5-methylthiazol-2-yl)imidazo[1,2-a]pyridine-6-sulfonamide] displayed a half-inhibitory concentration (IC50) of 33.1 nM.
The compound `N#CC1(NS(=O)(=O)c2cc(N3CCN(C(=O)C4CNCCN4)CC3)c3cnc(-c4nnc(C(F)(F)F)s4)n3c2)CC1` (stereo not shown) [Example 280, N-(1-cyanocyclopropyl)-8-(4-(piperazine-2-carbonyl)piperazin-1-yl)-3-(5-(trifluoromethyl)-1,3,4-thiadiazol-2-yl)imidazo[1,5-a]pyridine-6-sulfonamide] returned a half-maximal inhibitory concentration (IC50) (PARG, TFMU-ADPr substrate) of 45.7 nM.
In turn, `N#CC1(NS(=O)(=O)c2cc(N3CCC(O)(C(F)(F)F)CC3)c3cnc(-c4nnc(C(F)F)s4)n3c2)CC1` [Example 89, N-(1-cyanocyclopropyl)-3-(5-(difluoromethyl)-1,3,4-thiadiazol-2-yl)-8-(4-hydroxy-4-(trifluoromethyl)piperidin-1-yl)imidazo[1,5-a]pyridine-6-sulfonamide] showed an IC50 under setting [1] of 100 to 500 nM and an IC50 (PARG, TFMU-ADPr substrate) of 115 nM.
Take `O=S(=O)(NC1(CF)CC1)c1cc(N2CCC(O)C2)c2cnc(-c3nnc(C(F)F)s3)n2c1` (stereo not shown) [Example 46, 3-(5-(difluoromethyl)-1,3,4-thiadiazol-2-yl)-N-(1-(fluoromethyl)cyclopropyl)-8-(3-hydroxypyrrolidin-1-yl)imidazo[1,5-a]pyridine-6-sulfonamide]: the half-inhibitory concentration (IC50) is, setting by setting: under setting [1], below 100 nM; (PARG, TFMU-ADPr substrate) 6.31 nM.
For `N#CC1(NS(=O)(=O)c2cc(N3CCC(OC(F)(F)F)CC3)c3cnc(-c4nnc(C(F)F)s4)n3c2)CC1` [Example 48, N-(1-cyanocyclopropyl)-3-(5-(difluoromethyl)-1,3,4-thiadiazol-2-yl)-8-(4-(trifluoromethoxy)piperidin-1-yl)imidazo[1,5-a]pyridine-6-sulfonamide], in that order: below 100 nM and 13.2 nM.
On to `CC(C)C(=O)N1CCN(c2cc(S(=O)(=O)NC(C3CC3)C(F)(F)F)cn3c(-c4nnc(C(F)F)s4)ncc23)CC1` (stereo not shown) [Example 36, N-(1-cyclopropyl-2,2,2-trifluoroethyl)-3-(5-(difluoromethyl)-1,3,4-thiadiazol-2-yl)-8-(4-isobutyrylpiperazin-1-yl)imidazo[1,5-a]pyridine-6-sulfonamide], for which the 50% inhibitory concentration (IC50) is, setting by setting: under setting [1], 500 to 1000 nM; (PARG, TFMU-ADPr substrate) 649 nM.
Take `Cc1ncc(-c2cnn3c(N4CCN(C(=O)C(C)C)CC4)cc(S(=O)(=O)NC4(C#N)CC4)cc23)s1` [Example 28, N-(1-cyanocyclopropyl)-7-(4-isobutyrylpiperazin-1-yl)-3-(2-methylthiazol-5-yl)pyrazolo[1,5-a]pyridine-5-sulfonamide]: the IC50 under setting [1] was below 100 nM and half-maximal inhibition (PARG, TFMU-ADPr substrate) (IC50) was put at 33 nM.
For `C=CC(=O)N1CCC(c2cnc3c(N4CCN(C(=O)C(C)C)CC4)cc(S(=O)(=O)NC4(C#N)CC4)cn23)C1` (stereo not shown) [Example 19, 3-(1-acryloylpyrrolidin-3-yl)-N-(1-cyanocyclopropyl)-8-(4-isobutyrylpiperazin-1-yl)imidazo[1,2-a]pyridine-6-sulfonamide], the IC50 (PARG, TFMU-ADPr substrate) was 7240 nM.
As to `N#CC1(NS(=O)(=O)c2cc(N3CC4COCC4C3)c3cnc(-c4nnc(C(F)F)s4)n3c2)CC1` (stereo not shown) [Example 79, N-(1-cyanocyclopropyl)-3-(5-(difluoromethyl)-1,3,4-thiadiazol-2-yl)-8-(tetrahydro-1H-furo[3,4-c]pyrrol-5(3H)-yl)imidazo[1,5-a]pyridine-6-sulfonamide], the IC50 was below 100 nM under setting [1] and 52.5 nM (PARG, TFMU-ADPr substrate).
